Assay results as given in patent US10323043B2, “Derivatives of macrocyclic N-aryl-tricyclopyrimidine-2-amine polyethers as inhibitors of FTL3 and JAK” (PIERRE FABRE MEDICAMENT, priority 2014, dated 2019).

target: T1, FLT3^D835Y (Homo sapiens, UniProt P36888, D835Y); test: LanthaScreen TR-FRET binding test, FLT3 D835Y; settings: FLT3^D835Y 15 nM, kinase tracer 236 3 nM, 25° C., 1 hour; read-out: Inhibition (IC50) of FLT3^D835Y enzyme
T1 construct: purchased Merck Millipore 14-610
T1 sequence (P36888 27-993 D835Y): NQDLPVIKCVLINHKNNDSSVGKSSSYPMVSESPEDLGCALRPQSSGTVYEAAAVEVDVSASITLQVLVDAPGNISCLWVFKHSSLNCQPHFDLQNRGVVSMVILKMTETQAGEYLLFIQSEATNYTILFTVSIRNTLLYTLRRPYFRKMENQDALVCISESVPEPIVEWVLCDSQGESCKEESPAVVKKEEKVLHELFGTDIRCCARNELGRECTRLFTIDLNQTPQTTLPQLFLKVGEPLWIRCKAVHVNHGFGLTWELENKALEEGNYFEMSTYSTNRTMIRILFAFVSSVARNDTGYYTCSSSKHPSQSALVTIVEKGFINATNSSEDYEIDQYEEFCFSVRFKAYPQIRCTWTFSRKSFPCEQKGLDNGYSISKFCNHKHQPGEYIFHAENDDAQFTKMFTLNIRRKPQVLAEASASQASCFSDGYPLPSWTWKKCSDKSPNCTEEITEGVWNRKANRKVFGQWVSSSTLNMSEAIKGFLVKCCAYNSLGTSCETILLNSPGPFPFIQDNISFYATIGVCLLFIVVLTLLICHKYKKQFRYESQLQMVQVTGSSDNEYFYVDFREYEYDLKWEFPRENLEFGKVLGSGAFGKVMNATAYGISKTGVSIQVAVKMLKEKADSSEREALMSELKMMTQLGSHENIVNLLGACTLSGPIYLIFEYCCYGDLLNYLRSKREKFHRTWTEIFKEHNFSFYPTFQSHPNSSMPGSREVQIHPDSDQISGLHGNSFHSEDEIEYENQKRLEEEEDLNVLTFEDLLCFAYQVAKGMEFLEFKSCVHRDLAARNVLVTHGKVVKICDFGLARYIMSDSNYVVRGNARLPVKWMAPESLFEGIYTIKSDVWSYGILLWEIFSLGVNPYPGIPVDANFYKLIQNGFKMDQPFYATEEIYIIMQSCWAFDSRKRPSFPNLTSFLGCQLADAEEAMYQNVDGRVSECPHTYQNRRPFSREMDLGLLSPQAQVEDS
Procedure: FLT3 (#PV3182), JAK2 (#PV4210) and JAK3 (#PV3855) recombinant enzymes were purchased from Life Technologies. FLT3-ITD (#0778-0000-1) and FLT3^D835Y (#14-610) proteins were purchased from ProQinase and Merck Millipore, respectively. All the tests were carried out in 384-well plates. The principle of these binding tests is based on the LanthaScreen® TR-FRET methodology from Life Technologies.
The reaction mixture (15 μL total volume) contains the following compounds: 15 nM FLT3, FLT3-ITD or FLT3^D835Y, 3 nM kinase tracer 236 (Life Technologies, #PV5592) and 6 nM LanthaScreen® anti-GST antibody coupled to a europium chelate (Life Technologies, #PV5594) for FLT3-ITD and FLT3^D835Y or 6 nM LanthaScreen® anti-His antibody coupled to a europium chelate (Life Technologies, #PV5596) for FLT3.
The compounds are evaluated at 8 different concentrations prepared by making dilutions from a starting 10 mM stock solution in dimethylsulfoxide (DMSO) (Sigma, #D8418). The final DMSO concentration in the test is 1%. The reaction is carried out at 25° C. for 1 hour and detected on the EnVision® reader (Perkin Elmer) according to the recommendations of the supplier, Life Technologies.
The results are presented (Table 1) as the concentration values of the compound at which 50% of the kinase activity is inhibited, IC50 (μM), generated using the PRISM software (GraphPad).

IC50 [nM]	SMILES
3.2	c1cc(OCCN2CCCC2)c2cc1Nc1ncc3c(n1)-c1cc(ccc1CC3)OCCOCCO2 [Compound 14]
1	CN1CCN(c2ccc3cc2OCCOCCOc2ccc4c(c2)-c2nc(ncc2CC4)N3)CC1(C)C [Compound 40]
1.9	c1cc(N2CC3CNCC3C2)c2cc1Nc1ncc3c(n1)-c1cc(ccc1CC3)OCCOCCO2 (stereo not shown) [Compound 29]
0.66	c1cc(N2CCNCC2)c2cc1Nc1ncc3c(n1)-c1cc(ccc1CC3)OCCOCCO2 [Compound 5]
7.2	c1cc(N2CCC(N3CCOCC3)C2)c2cc1Nc1ncc3c(n1)-c1cc(ccc1CC3)OCCOCCO2 (stereo not shown) [Compound 7]
1.1	c1cc(N2CCC(N3CCCCC3)CC2)c2cc1Nc1ncc3c(n1)-c1cc(ccc1CC3)OCCOCCO2 [Compound 10]
5.3	OC1CCN(c2ccc3cc2OCCOCCOc2ccc4c(c2)-c2nc(ncc2CC4)N3)CC1 [Compound 19]
4.5	CN1CC=C(c2ccc3cc2OCCOCCOc2ccc4c(c2)-c2nc(ncc2CC4)N3)CC1 [Compound 23]
3	CN1CCN(c2ccc3cc2OCCOCCOc2ccc4c(c2)-c2nc(ncc2CC4)N3)CC1 [Compound 3]
3.2	CN(C)C1CCN(c2ccc3cc2OCCOCCOc2ccc4c(c2)-c2nc(ncc2CC4)N3)C1 (stereo not shown) [Compound 30]
